Measurements taken from paper PMC3306394 (PLoS ONE, 2012).
Read-outs that look alike come from different tables or passages of the source.

Tests used:
[1] = molecular target: T1, wild-type HpSK (Helicobacter pylori, UniProt P56073); assay: Isothermal titration calorimetry, wild-type HpSK; format: binding
T1 construct: His6 (own knowledge: the pQE30 vector gives an N-terminal MRGS-His6 tag); made in house; host or cells: E. coli (printed for the mutants; same procedures as for wild type)
Procedure: (§1) Titration experiments were performed by ITC using an iTC200 or VP-ITC instrument (MicroCal, Piscataway, NJ, USA), and a 0.2-ml (iTC200) or 1.4-ml (VP-ITC) sample cell containing the macromolecule solution. All proteins were prepared in a buffer containing 20 mM potassium phosphate, pH 7.3. Prior to the experiment, samples were filtered and degassed under vacuum for 10 min in a Thermo Vac system (Microcal). The sample cell was filled with sample protein solution (15 µM) or the working buffer. Procedures of iTC200 titrations with a ligand (450 µM) were as follows: an initial 1-µl injection (not included in data analysis) followed by 19 injections of 2 µl each, with 2-min intervals between injections. Similar procedures for VP-ITC titrations were also performed: an initial 2-µl injection followed by 24 injections of 10 µl each, with 3-min intervals between injections. The experiments were performed with a constant stirrer speed of 1000 rpm (iTC200) or 290 rpm (VP-ITC) at 25°C. The binding isotherms were fitted to a one-site binding model to obtain the thermodynamic parameters with the initial point discarded. Data analysis was conducted using Origin 7 software.

[2] = molecular target: T2, HpSK M10A (Helicobacter pylori, UniProt P56073, M10A); assay: Isothermal titration calorimetry, M10A; format: binding; conditions: ITC, 25°C, ND = not detectable
T2 construct: His6 (own knowledge: pQE30 vector gives an N-terminal MRGS-His6 tag); made in house; host or cells: E. coli
T2 sequence (P56073 whole entry M10A): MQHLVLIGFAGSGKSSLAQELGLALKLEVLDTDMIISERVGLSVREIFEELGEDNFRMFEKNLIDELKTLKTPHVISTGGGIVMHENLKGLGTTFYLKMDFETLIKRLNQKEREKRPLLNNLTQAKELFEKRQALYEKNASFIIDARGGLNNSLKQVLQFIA
Procedure: as §1

[3] = molecular target: T2, HpSK M10A; format: biochemical; conditions: apparent value
Procedure: (§2) SK activity was determined by coupling the release of ADP from the SK-catalyzed reaction to the oxidation of NADH using pyruvate kinase (EC 2.7.1.40) and lactate dehydrogenase (EC 1.1.1.27) as coupling enzymes. […] All assays were conducted in a 96-well microplate and analyzed with a spectrophotometer (FLUOstar OPTIMA, BMG LABTECH). The relative activity of wild-type HpSK was set to 100%.

[4] = molecular target: T3, HpSK F48Y (Helicobacter pylori, UniProt P56073, F48Y); assay: Isothermal titration calorimetry, F48Y; format: binding; conditions: ITC, 25°C, ND = not detectable
T3 construct: His6 (own knowledge: pQE30 vector gives an N-terminal MRGS-His6 tag); made in house; host or cells: E. coli
T3 sequence (P56073 whole entry F48Y): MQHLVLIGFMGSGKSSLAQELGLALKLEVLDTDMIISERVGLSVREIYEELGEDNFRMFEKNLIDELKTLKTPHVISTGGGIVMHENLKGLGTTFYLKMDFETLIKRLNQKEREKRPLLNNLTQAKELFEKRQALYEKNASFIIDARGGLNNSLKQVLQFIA
Procedure: as §1

[5] = molecular target: T4, wild-type HpSK (Helicobacter pylori shikimate kinase) (Helicobacter pylori, UniProt P56073); conditions: wild-type enzyme, cited from earlier work
T4 construct: His6 (own knowledge: the pQE30 vector gives an N-terminal MRGS-His6 tag); made in house; host or cells: E. coli (printed for the mutants; same procedures as for wild type)
T4 sequence (P56073 whole entry): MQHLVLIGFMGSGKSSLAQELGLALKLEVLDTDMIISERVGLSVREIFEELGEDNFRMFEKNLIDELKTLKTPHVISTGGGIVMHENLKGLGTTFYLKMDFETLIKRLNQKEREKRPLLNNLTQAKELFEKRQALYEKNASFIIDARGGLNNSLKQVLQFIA

[6] = molecular target: T5, HpSK R132A (Helicobacter pylori, UniProt P56073, R132A); assay: Isothermal titration calorimetry, R132A; format: binding; conditions: ITC, 25°C, ND = not detectable
T5 construct: His6 (own knowledge: pQE30 vector gives an N-terminal MRGS-His6 tag); made in house; host or cells: E. coli
T5 sequence (P56073 whole entry R132A): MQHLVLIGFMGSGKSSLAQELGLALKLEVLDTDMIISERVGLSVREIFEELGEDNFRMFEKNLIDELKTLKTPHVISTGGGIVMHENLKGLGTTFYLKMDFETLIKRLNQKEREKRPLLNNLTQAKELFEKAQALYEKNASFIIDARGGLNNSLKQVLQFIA
Procedure: as §1

[7] = molecular target: T6, HpSK E114A (Helicobacter pylori, UniProt P56073, E114A); assay: Isothermal titration calorimetry, E114A; format: binding; conditions: ITC, 25°C, ND = not detectable
T6 construct: His6 (own knowledge: pQE30 vector gives an N-terminal MRGS-His6 tag); made in house; host or cells: E. coli
T6 sequence (P56073 whole entry E114A): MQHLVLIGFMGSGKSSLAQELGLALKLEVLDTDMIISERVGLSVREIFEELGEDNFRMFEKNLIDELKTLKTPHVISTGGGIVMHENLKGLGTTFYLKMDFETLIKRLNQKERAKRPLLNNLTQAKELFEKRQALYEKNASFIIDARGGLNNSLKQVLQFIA
Procedure: as §1

[8] = molecular target: T7, HpSK R57A (Helicobacter pylori, UniProt P56073, R57A); assay: Isothermal titration calorimetry, R57A; format: binding; conditions: ITC, 25°C, ND = not detectable
T7 construct: His6 (own knowledge: pQE30 vector gives an N-terminal MRGS-His6 tag); made in house; host or cells: E. coli
T7 sequence (P56073 whole entry R57A): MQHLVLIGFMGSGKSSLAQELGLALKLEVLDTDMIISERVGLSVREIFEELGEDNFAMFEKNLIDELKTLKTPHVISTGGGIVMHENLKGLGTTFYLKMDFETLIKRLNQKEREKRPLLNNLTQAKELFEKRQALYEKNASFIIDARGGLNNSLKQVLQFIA
Procedure: as §1

[9] = molecular target: T8, HpSK R116K (Helicobacter pylori, UniProt P56073, R116K); assay: Isothermal titration calorimetry, R116K; format: binding; conditions: ITC, 25°C, ND = not detectable
T8 construct: His6 (own knowledge: pQE30 vector gives an N-terminal MRGS-His6 tag); made in house; host or cells: E. coli
T8 sequence (P56073 whole entry R116K): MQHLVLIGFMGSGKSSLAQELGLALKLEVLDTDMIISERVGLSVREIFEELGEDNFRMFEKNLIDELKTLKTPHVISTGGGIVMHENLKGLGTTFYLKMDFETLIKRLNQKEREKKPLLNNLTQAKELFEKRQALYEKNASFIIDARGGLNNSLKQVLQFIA
Procedure: as §1

[10] = molecular target: T3, HpSK F48Y; format: biochemical
Procedure: as §2, with “enzymes. Shikimate-dependent oxidation of NADH was monitored by a decrease in A340 (ε = 6,200 M^−1 cm^−1).” for “enzymes.”

[11] = molecular target: T6, HpSK E114A; format: biochemical
Procedure: as §2, with “enzymes. Shikimate-dependent oxidation of NADH was monitored by a decrease in A340 (ε = 6,200 M^−1 cm^−1).” for “enzymes.”

[12] = molecular target: T9, HpSK R57K (Helicobacter pylori, UniProt P56073, R57K); assay: Isothermal titration calorimetry, R57K; format: binding; conditions: ITC, 25°C, ND = not detectable
T9 construct: His6 (own knowledge: pQE30 vector gives an N-terminal MRGS-His6 tag); made in house; host or cells: E. coli
T9 sequence (P56073 whole entry R57K): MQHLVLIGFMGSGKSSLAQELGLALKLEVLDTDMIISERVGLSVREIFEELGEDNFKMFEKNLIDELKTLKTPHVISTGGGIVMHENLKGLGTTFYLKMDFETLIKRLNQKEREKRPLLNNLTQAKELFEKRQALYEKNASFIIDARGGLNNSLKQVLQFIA
Procedure: as §1

[13] = molecular target: T10, HpSK D33A (Helicobacter pylori, UniProt P56073, D33A); assay: Isothermal titration calorimetry, D33A; format: binding; conditions: ITC, 25°C, ND = not detectable
T10 construct: His6 (own knowledge: pQE30 vector gives an N-terminal MRGS-His6 tag); made in house; host or cells: E. coli
T10 sequence (P56073 whole entry D33A): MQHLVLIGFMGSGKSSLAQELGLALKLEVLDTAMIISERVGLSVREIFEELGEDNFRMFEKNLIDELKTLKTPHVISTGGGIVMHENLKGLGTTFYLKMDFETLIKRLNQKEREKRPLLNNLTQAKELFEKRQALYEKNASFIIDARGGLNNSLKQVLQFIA
Procedure: as §1

[14] = molecular target: T11, HpSK D33E (Helicobacter pylori, UniProt P56073, D33E); assay: Isothermal titration calorimetry, D33E; format: binding; conditions: ITC, 25°C, ND = not detectable
T11 construct: His6 (own knowledge: pQE30 vector gives an N-terminal MRGS-His6 tag); made in house; host or cells: E. coli
T11 sequence (P56073 whole entry D33E): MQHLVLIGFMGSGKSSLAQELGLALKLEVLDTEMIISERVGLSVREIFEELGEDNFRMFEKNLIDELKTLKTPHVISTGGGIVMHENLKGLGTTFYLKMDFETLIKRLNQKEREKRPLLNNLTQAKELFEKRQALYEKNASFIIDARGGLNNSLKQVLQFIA
Procedure: as §1

[15] = molecular target: T12, HpSK R116A (Helicobacter pylori, UniProt P56073, R116A); assay: Isothermal titration calorimetry, R116A; format: binding; conditions: ITC, 25°C, ND = not detectable
T12 construct: His6 (own knowledge: pQE30 vector gives an N-terminal MRGS-His6 tag); made in house; host or cells: E. coli
T12 sequence (P56073 whole entry R116A): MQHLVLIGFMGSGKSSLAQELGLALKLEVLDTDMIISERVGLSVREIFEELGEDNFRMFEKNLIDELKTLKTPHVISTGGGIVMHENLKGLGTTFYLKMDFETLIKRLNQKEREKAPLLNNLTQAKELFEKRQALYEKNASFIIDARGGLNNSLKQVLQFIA
Procedure: as §1

[16] = molecular target: T13, HpSK F48A (Helicobacter pylori, UniProt P56073, F48A); assay: Isothermal titration calorimetry, F48A; format: binding; conditions: ITC, 25°C, ND = not detectable
T13 construct: His6 (own knowledge: pQE30 vector gives an N-terminal MRGS-His6 tag); made in house; host or cells: E. coli
T13 sequence (P56073 whole entry F48A): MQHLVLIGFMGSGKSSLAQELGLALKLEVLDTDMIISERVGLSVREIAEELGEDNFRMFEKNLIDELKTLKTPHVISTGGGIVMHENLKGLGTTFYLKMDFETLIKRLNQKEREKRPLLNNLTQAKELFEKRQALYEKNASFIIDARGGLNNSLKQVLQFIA
Procedure: as §1

[17] = molecular target: T14, HpSK R132K (Helicobacter pylori, UniProt P56073, R132K); assay: Isothermal titration calorimetry, R132K; format: binding; conditions: ITC, 25°C, ND = not detectable
T14 construct: His6 (own knowledge: pQE30 vector gives an N-terminal MRGS-His6 tag); made in house; host or cells: E. coli
T14 sequence (P56073 whole entry R132K): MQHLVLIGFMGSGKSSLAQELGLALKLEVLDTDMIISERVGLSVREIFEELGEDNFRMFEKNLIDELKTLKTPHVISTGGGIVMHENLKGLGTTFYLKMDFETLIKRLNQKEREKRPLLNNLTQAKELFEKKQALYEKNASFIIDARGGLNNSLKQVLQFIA
Procedure: as §1

[18] = read-out: Km (shikimate), apparent value
[19] = apparent value, read-out: Km (MgATP)

T1 sequence (P56073 whole entry): as the sequence (P56073 whole entry) above

SMILES: O=C(O)C1=C[C@@H](O)[C@@H](O)[C@H](O)C1 [shikimate, shikimic acid]
- Kd [1]: 0.32 ± 0.07 µM
- Kd [2]: 34 ± 7 µM
- V max(shikimate) [3]: 16 ± 1 µmol/min/mg
- Kd [4]: 5.2 ± 0.4 µM
- Km ([5]; read-out: Km (shikimate)): 60 µM
- V max(shikimate) [5]: 22 ± 1 µmol/min/mg
- Kd [6]: no heat release
- Kd [7]: 0.33 ± 0.03 µM
- Kd [8]: no heat release
- Kd [9]: no heat release
- V max(shikimate) ([10]; apparent value): 13 ± 2 µmol/min/mg
- Km [10, 18]: 291 µM
- V max(shikimate) ([11]; apparent value): 23 ± 1 µmol/min/mg
- Km [11, 18]: 39 µM
- Kd [12]: no heat release
- Kd [13]: no heat release
- Kd [14]: no heat release
- Kd [15]: no heat release
- Kd [16]: lost binding activity
- Kd [17]: no heat release

SMILES: Nc1ncnc2c1ncn2[C@@H]1O[C@H](COP(=O)(O)OP(=O)(O)OP(=O)(O)O)[C@@H](O)[C@H]1O [ATP]
- V max(MgATP) [3]: 26 ± 1 µmol/min/mg
- Km ([3]; read-out: Km (MgATP)): 293 µM
- V max(MgATP) [5]: 26 ± 1 µmol/min/mg
- Km ([5]; read-out: Km (MgATP)): 101 µM
- V max(MgATP) ([10]; apparent value): 17 ± 1 µmol/min/mg
- Km [10, 19]: 231 µM
- V max(MgATP) ([11]; apparent value): 26 ± 2 µmol/min/mg
- Km [11, 19]: 143 µM
